Measurements: paper PMC10285254, “The FAM86 domain of FAM86A confers substrate specificity to promote EEF2-Lys525 methylation” (The Journal of Biological Chemistry, 2023)
Positions count from the first letter of the chain named.

Assays:
FAM86A [1] = biological target: T1, FAM86A (Homo sapiens, UniProt Q96G04, I256Y/M257Y/E296Y); test: X-ray crystal structure, […] A; conditions: co-crystallised with 1 mM SAH, ammonium citrate pH 7.0, PEG 3350, 5 mM TCEP, 12 C; SAM-binding site of MTase domain
T1 construct: gene EEF2KMT; full-length, surface-entropy-reduction triple mutant; N-terminal His6-MBP tag removed by TEV; E. coli BL21(DE3) RIL; residues 1-5 and 127-133 not traced
T1 sequence (Q96G04 1-330 I256Y/M257Y/E296Y): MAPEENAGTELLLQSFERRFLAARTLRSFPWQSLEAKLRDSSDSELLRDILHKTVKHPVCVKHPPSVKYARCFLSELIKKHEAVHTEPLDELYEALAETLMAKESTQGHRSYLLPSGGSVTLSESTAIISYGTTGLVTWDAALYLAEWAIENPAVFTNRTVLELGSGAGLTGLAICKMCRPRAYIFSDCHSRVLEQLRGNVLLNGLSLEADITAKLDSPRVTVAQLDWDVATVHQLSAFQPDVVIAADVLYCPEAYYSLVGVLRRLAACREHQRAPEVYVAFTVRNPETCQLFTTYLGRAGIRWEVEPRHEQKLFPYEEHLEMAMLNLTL

FAM86A [2] = biological target: T2, FAM86A (Homo sapiens, UniProt Q96G04); test: in vitro methylation, autoradiography; format: biochemical; conditions: labelled compound; methyl donor; co-substrate recombinant human EEF2 (Lys525); Tris-HCl pH 8.0, 20 mM KCl, 5 mM MgCl2, 10% glycerol, 30 C overnight
T2 construct: gene EEF2KMT; full-length; E. coli BL21
T2 sequence (Q96G04 1-330): T1 sequence (Q96G04 1-330 I256Y/M257Y/E296Y) with Y256I, Y257M, Y296E
Procedure: in vitro methylation, autoradiography on FA[…] | incubating recombinant, purified FA[…] with recombinant, purified EEF2 in the presence of radiolabeled SAM

FAM86A [3] = biological target: T3, FAM86A (Homo sapiens, UniProt Q96G04, A97R); test: in vitro methylation, autoradiography; format: biochemical; conditions: labelled compound; methyl donor; co-substrate recombinant human EEF2 (Lys525); Tris-HCl pH 8.0, 20 mM KCl, 5 mM MgCl2, 10% glycerol, 30 C overnight
T3 construct: gene EEF2KMT; full-length; E. coli BL21
T3 sequence (Q96G04 1-330 A97R): T1 sequence (Q96G04 1-330 I256Y/M257Y/E296Y) with A97R, Y256I, Y257M, Y296E

| SMILES | X-ray crystal structure, 3.3 A (FAM86A [1]) | in vitro methylation, autoradiography (FAM86A [2]) | in vitro methylation, autoradiography (FAM86A [3]) |
| --- | --- | --- | --- |
| Nc1ncnc2c1ncn2[C@@H]1O[C@H](CSCC[C@H](N)C(=O)O)[C@@H](O)[C@H]1O [SAH, S-adenosyl homocysteine] | structure determination of full-length FAM86A in complex with cofactor–by-product S-adenosyl homocysteine (SAH) |  |  |
| C[S+](CC[C@H](N)C(=O)O)C[C@H]1O[C@@H](n2cnc3c(N)ncnc32)[C@H](O)[C@@H]1O (stereo partly drawn) [SAM, S-adenosyl methionine] |  | incubating recombinant, purified FAM86A with recombinant, purified EEF2 in the presence of radiolabeled SAM | the activity of purified FAM86A (A97R) on purified EEF2 was similar to that of wildtype |
